Counter-ions that a name gives are not always drawn. Like-named read-outs stand apart in the source and are kept apart here.
Legend:
[1] = test system: NCI-H292 lung cancer cells; assay: FDA drug screening, complete media vs cholesterol-free media with simvastatin (TABLE 2); format: cell-based, human
[2] = test system: NCI-H292 lung cancer cells; assay: FDA drug screening, complete media vs cholesterol-free media without statin (TABLE 1); format: cell-based, human
[3] = NCI-H292 cells, cholesterol-free media with simvastatin 0.04 μM, FDA drug library screen (TABLE 2)
[4] = NCI-H292 cells, complete media, FDA drug library screen (TABLE 2)
[5] = complete media minus cholesterol-free media + simvastatin (0.04 μM), >0 enhanced anti-cancer activity, about 0 neutral, <0 antagonist
[6] = Complete minus Cholesterol-free, >0 enhanced anti-cancer activity, about 0 neutral, <0 antagonist
[7] = NCI-H292 cells, cholesterol-free media without statin, FDA drug library screen
[8] = NCI-H292 cells, complete media, FDA drug library screen
[9] = NCI-H292 cells, FDA drug library screen, cholesterol-free media with simvastatin 0.04 μM
[10] = NCI-H292 cells, FDA drug library screen, complete media
[11] = complete media vs cholesterol-free media + simvastatin (0.04 μM), >0 enhanced anti-cancer activity, about 0 neutral, <0 antagonist
[12] = complete media minus cholesterol-free media + simvastatin, >0 enhanced anti-cancer activity, about 0 neutral, <0 antagonist
[13] = complete vs cholesterol-free media, >0 enhanced anti-cancer activity, about 0 neutral, <0 antagonist
[14] = Complete minus Cholesterol-free, greater than 0 enhanced anti-cancer activity, about 0 neutral, below 0 antagonists
[15] = NCI-H292 cells in cholesterol-free media without statin
[16] = NCI-H292 cells in complete media
[17] = NCI-H292 cells, FDA library drug in cholesterol-free media with simvastatin 0.04 μM
[18] = NCI-H292 cells, FDA library drug in complete media
[19] = NCI-H292 cells, cholesterol-free media without statin
[20] = complete vs cholesterol-free media, greater than 0 enhanced anti-cancer activity, about 0 neutral, below 0 antagonists

C[N+](C)(C)CCO.O=C([O-])C(O)C(O)C(=O)O (centres unmarked) [Choline (bitartrate)]
Cholesterol-free media + simvastatin (0.04 μM) [1]: 1.34 | Complete Media [1]: 1.054 | Difference [1]: −0.29 | Cholesterol-free [2]: 1.646 | Complete [2]: 0.8603 | Difference [2]: −0.79

CC(C)C[C@H](NC(=O)[C@H](Cc1ccccc1)NC(=O)c1cnccn1)B(O)O [Bortezomib]
Cholesterol-free media + simvastatin (0.04 μM) [1, 3]: 0.003233 | Complete Media [1, 4]: −0.017 | Difference [1, 5]: −0.02 | Difference [2, 6]: 0.00 | Cholesterol-free [2, 7]: 0.006863 | Complete [2, 8]: 0.00697

C[C@H]1C[C@@H]2[C@H]([C@@H](O)C[C@@]3(C)[C@H]2CC[C@]3(O)C(=O)COC(=O)CCC(=O)[O-])[C@@]2(C)C=CC(=O)C=C12.[Na+]
Cholesterol-free media + simvastatin (0.04 μM) [1, 9]: 0.7536 | Complete Media [1, 10]: 0.682 | Difference [1, 11]: −0.07 | Difference [2, 6]: 0.02 | Cholesterol-free [2, 7]: 0.6071 | Complete [2, 8]: 0.6313

NNC(=O)c1ccncc1 [Isoniazid]
Cholesterol-free media + simvastatin (0.04 μM) [1, 9]: 1.455 | Complete Media [1, 10]: 1.672 | Difference [1, 12]: 0.22 | Cholesterol-free [2, 7]: 0.6633 | Complete [2, 8]: 1.357 | Difference [2, 13]: 0.69

CN(C)C(=N)N=C(N)N [Metformin]
Cholesterol-free media + simvastatin (0.04 μM) [1, 9]: 1.921 | Difference [1, 5]: −0.91 | Difference [2, 14]: −0.64 | Cholesterol-free [2, 15]: 1.603 | Complete [2, 16]: 0.9656

CC(C)NC[C@@H](O)COc1ccc(CC(N)=O)cc1 [(R)-(+)-Atenolol]
Cholesterol-free media + simvastatin (0.04 μM) [1, 17]: 1.166 | Complete Media [1, 18]: 0.872 | Difference [1, 11]: −0.29 | Difference [2, 6]: 0.07 | Cholesterol-free [2, 7]: 0.8467 | Complete [2, 8]: 0.9214

CCCCCOC(=O)Nc1nc(=O)n([C@@H]2O[C@H](C)[C@@H](O)[C@H]2O)cc1F [Capecitabine]
Cholesterol-free media + simvastatin (0.04 μM) [1, 17]: 1.236 | Complete Media [1, 18]: 0.648 | Difference [1, 11]: −0.59 | Difference [2, 6]: −0.20 | Cholesterol-free [2, 19]: 1.138 | Complete ([2]; NCI-H292 cells, complete media): 0.9364

CC(C)(Oc1ccc(CCNC(=O)c2ccc(Cl)cc2)cc1)C(=O)O [Bezafibrate]
Cholesterol-free media + simvastatin (0.04 μM) [1, 3]: 1.03 | Complete Media [1, 4]: 1.024 | Difference [1, 5]: −0.01 | Difference [2, 14]: −0.60 | Cholesterol-free [2, 15]: 1.652 | Complete [2, 16]: 1.053

CNCCCC12CCC(c3ccccc31)c1ccccc12 [Maprotiline (hydrochloride)]
Cholesterol-free media + simvastatin (0.04 μM) [1, 17]: 1.215 | Complete Media [1, 18]: 0.924 | Difference [1, 11]: −0.29 | Cholesterol-free [2, 19]: 1.347 | Complete ([2]; NCI-H292 cells, complete media): 0.9995 | Difference [2, 20]: −0.35

CCn1cc(C(=O)O)c(=O)c2cnc(N3CCNCC3)nc21 [Pipemidic acid]
Cholesterol-free media + simvastatin (0.04 μM) [1, 3]: 1.008 | Complete Media [1, 4]: 0.9896 | Difference [1, 5]: −0.02 | Cholesterol-free [2, 19]: 1.181 | Complete ([2]; NCI-H292 cells, complete media): 0.8267 | Difference [2, 20]: −0.35

CC(=O)O[C@@]12CO[C@@H]1C[C@H](O)[C@@]1(C)C(=O)[C@H](O)C3=C(C)[C@@H](OC(=O)[C@H](O)[C@@H](NC(=O)OC(C)(C)C)c4ccccc4)C[C@@](O)([C@@H](OC(=O)c4ccccc4)[C@H]21)C3(C)C [Docetaxel]
Cholesterol-free media + simvastatin (0.04 μM) ([1]; NCI-H292 cells, cholesterol-free media with simvastatin 0.04 μM, cell growth value in FDA drug screen): 0.2547 | Complete Media ([1]; NCI-H292 cells, complete media, cell growth value in FDA drug screen): 0.2778 | Difference [1, 12]: 0.02 | Difference [2, 6]: 0.04 | Cholesterol-free [2, 7]: 0.1661 | Complete [2, 8]: 0.2055

C=CC(N)CCC(=O)O (centres unmarked) [Vigabatrin]
Cholesterol-free media + simvastatin (0.04 μM) [1, 3]: 0.8099 | Complete Media [1, 4]: 0.7743 | Difference [1, 5]: −0.04 | Cholesterol-free [2, 7]: 0.7255 | Complete [2, 8]: 1.221 | Difference [2, 13]: 0.50

Hemin
Cholesterol-free media + simvastatin (0.04 μM) [1, 3]: 1.178 | Complete Media [1, 4]: 1.151 | Difference ([1]; complete media minus cholesterol-free media + simvastatin (0.04 μM), […]): −0.03 | Difference ([2]; Complete minus Cholesterol-free, […]): −0.04 | Cholesterol-free [2, 7]: 0.9968 | Complete [2, 8]: 0.96

CCCCCN(C)CCC(O)(P(=O)(O)O)P(=O)(O)O [Ibandronate (Sodium Monohydrate)]
Cholesterol-free media + simvastatin (0.04 μM) [1, 17]: 1.077 | Complete Media [1, 18]: 0.796 | Difference [1, 11]: −0.28 | Difference [2, 6]: −0.03 | Cholesterol-free [2, 7]: 1.101 | Complete [2, 8]: 1.074

CC(C)COCC(CN(Cc1ccccc1)c1ccccc1)N1CCCC1 (centres unmarked) [Bepridil (hydrochloride hydrate)]
Cholesterol-free media + simvastatin (0.04 μM) [1, 9]: 1.501 | Complete Media [1, 10]: 1.762 | Difference [1, 12]: 0.26 | Difference [2, 6]: −0.25 | Cholesterol-free [2, 19]: 1.151 | Complete ([2]; NCI-H292 cells, complete media): 0.8961

CO[C@@H]1[C@H](N(C)C(=O)c2ccccc2)C[C@H]2O[C@]1(C)n1c3ccccc3c3c4c(c5c6ccccc6n2c5c31)C(=O)NC4 [Midostaurin]
Cholesterol-free media + simvastatin (0.04 μM) [1, 9]: 0.6712 | Complete Media [1, 10]: 0.5312 | Difference [1, 11]: −0.14 | Difference [2, 6]: 0.06 | Cholesterol-free [2, 7]: 0.3336 | Complete [2, 8]: 0.3958

CC1=C(C(=O)OC(C)C)C(c2cccc([N+](=O)[O-])c2)C(C(=O)OC2CN(C(c3ccccc3)c3ccccc3)C2)=C(N)N1 (centres unmarked) [Azelnidipine]
Cholesterol-free media + simvastatin (0.04 μM) [1, 9]: 0.7982 | Complete Media [1, 10]: 1.013 | Difference [1, 12]: 0.21 | Difference ([2]; Complete minus Cholesterol-free, greater than 0 enhanced anti-cancer activity, about 0 neutral, below 0 antagonist): −0.15 | Cholesterol-free ([2]; NCI-H292 cells, FDA drug library screen, cholesterol-free media without statin): 0.7076 | Complete [2, 10]: 0.5567

Cc1nc2c([nH]1)-c1ccccc1N(C(=O)c1ccc(NC(=O)c3ccccc3-c3ccccc3)cc1)CC2 [Conivaptan (hydrochloride)]
Cholesterol-free media + simvastatin (0.04 μM) [1, 9]: 1.147 | Complete Media [1, 10]: 1.002 | Difference [1, 11]: −0.15 | Difference [2, 14]: −0.65 | Cholesterol-free [2, 15]: 1.641 | Complete [2, 16]: 0.989

Guanabenz (Acetate)
Cholesterol-free media + simvastatin (0.04 μM) [1]: 1.185 | Complete Media [1]: 0.9697 | Difference [1]: −0.22 | Cholesterol-free [2]: 0.8753 | Complete [2]: 0.6073 | Difference [2]: −0.27

COC(=O)CCc1ccc(OCC(O)CNC(C)C)cc1 (centres unmarked) [Esmolol (hydrochloride)]
Cholesterol-free media + simvastatin (0.04 μM) [1, 9]: 1.21 | Complete Media [1, 10]: 1.054 | Difference [1, 11]: −0.16 | Cholesterol-free [2, 7]: 0.7243 | Complete [2, 8]: 0.9329 | Difference [2, 13]: 0.21

Cc1cc(-c2ccc(/N=N/c3ccc4c(S(=O)(=O)O)cc(S(=O)(=O)O)c(N)c4c3O)c(C)c2)ccc1/N=N/c1ccc2c(S(=O)(=O)O)cc(S(=O)(=O)O)c(N)c2c1O [Evans Blue]
Cholesterol-free media + simvastatin (0.04 μM) ([1]; NCI-H292 cells, drug in cholesterol-free media with simvastatin 0.04 μM): 1.142 | Complete Media ([1]; NCI-H292 cells, drug in complete media): 0.9534 | Difference [1, 11]: −0.19 | Difference [2, 6]: −0.05 | Cholesterol-free [2, 7]: 1.165 | Complete [2, 8]: 1.11

Leuprolide (Acetate)
Cholesterol-free media + simvastatin (0.04 μM) [1]: 1.032 | Complete Media [1]: 1.087 | Difference [1]: 0.06 | Cholesterol-free [2]: 1 | Complete [2]: 0.6877 | Difference [2]: −0.31

OCc1ccc(O[C@@H]2O[C@H](CO)[C@@H](O)[C@H](O)[C@H]2O)cc1 [Gastrodin]
Cholesterol-free media + simvastatin (0.04 μM) [1]: 1.131 | Complete Media [1]: 1.355 | Difference [1]: 0.22 | Cholesterol-free [2]: 1.466 | Complete [2]: 1.162 | Difference [2]: −0.30
